# From patent US8779002B2, “Methods for treating a variety of diseases and conditions, and compounds useful therefor” (Salk Institute for Biological Studies, priority 2007, dated 2014)
# Read-outs that look alike come from different tables or passages of the source.
# Test: Plasma concentration and brain content after a single oral dose by gavage
# Format: in vivo, mouse
# Conditions: for concentration at 0 hr / concentration at 1 hr / concentration at 2 hr: female, mouse, BALB/c mice
# Protocol: The pharmacokinetic properties of a single oral dose of exemplary compounds according to the invention, i.e., Cmpd 11-001 and Cmpd J147, are studied in 10-week old female BALB/c mice. Cmpd 11-001 or J147 are emulsified in 2.5% carboxymethyl cellulose at a concentration of 20 mg/ml and administered by gavage at a dosage of 400 mg/kg body weight or 200 mg/kg body weight, respectively. The mice are then sacrificed at various intervals after administration (0, 1 hr, 2 hr, 4 hr, and 6 hr).
# Plasma is obtained from blood (mixed with K3EDTA to prevent coagulation) by centrifugation at 4,300 g for 10 min, extracted twice with ethyl acetate/propanol (9:1, v/v). The extracts are centrifuged at 5,000 g for 10 min to form aqueous/organic layers. The organic layer containing Cmpd 11-001 is centrifuged at 20,000 g for 10 min to sediment particles. The extraction recovery from plasma is approximately 90%. Thirty μl thereof were analyzed by HPLC equipped with a C18 reversed phase column—Cmpd 11-001 is detected at 330 nm. The elution solvent system is 50% acetonitrile, 50% water and 1 g/L trifluoroacetic acid with a flow rate of 1 ml/min.
# To study the distribution of compounds according to the invention in brain at various time intervals (0, 1 hr, 2 hr, 4 hr, and 6 hr) after gavage (400 mg/kg or 200 mg/kg as noted above), the mice are anesthetized with cloral hydrate and perfused through the heart with phosphate buffered saline (PBS) to remove blood in the brain. The mice are then decapitated, the brains removed, and quickly frozen and stored at −80° C. before further analysis. To measure the level of invention compound in the brain, weighed brain pieces are homogenized by sonication in 3 volumes of PBS. The homogenates are then extracted and measured by HPLC as described above.
# [1] = brain, 200 mg/kg single oral dose by gavage, read-out: Brain content
# [2] = plasma, 200 mg/kg single oral dose by gavage, read-out: Plasma concentration
smiles,measurement,setting,value
COc1cccc(/C=N/N(C(=O)C(F)(F)F)c2ccc(C)cc2C)c1 [Compound J147],Time at which maximum plasma concentration is reached after administration,"200 mg/kg single oral dose by gavage, mice",about 1 hr
same,concentration at 0 hr,[1],0 ng/g
same,concentration at 1 hr,[1],3900 ng/g
same,concentration at 2 hr,[1],2800 ng/g
same,concentration at 0 hr,[2],0 ng/mL
same,concentration at 1 hr,[2],5600 ng/mL
same,concentration at 2 hr,[2],300 ng/mL
same,Retention in the brain,"relative to 11-011, after oral gavage in mice",improved ability to be retained in the brain
